Assay results: patent US20170314077A1, “SLFN11 AS BIOMARKER FOR AML” (BERGENBIO AS, priority 2014, published 2017)
Entries after “also recorded” stand apart in the source; their conditions may differ.

Legend:
pErk = assay: MOLM13 systemic xenograft model: biomarker flow cytometry in CD33-positive cells, pErk; format: in vivo, mice; conditions: 50 mg/kg for 4 days
Description: (§1) Material from an in vivo MOLM13 systemic model was also evaluated by flow cytometry. Expression of the previously evaluated biomarkers was examined in cells isolated from bone marrows and spleens of animals with systemic AML disease (MOLM13, inoculated for 7 days prior to treatment) treated with BGB324 at 50 mg/kg for 4 days.
(§2) Cells isolated from spleens and bone marrows were assessed for phosphorylation of Erk, PLCγ1 and Akt, and expression of PHGDH and SLFN11. The samples were also co-stained with CD33, and biomarker expression was only evaluated in CD33-positive cells.

pPLCγ1 = assay: MOLM13 systemic xenograft model: biomarker flow cytometry in CD33-positive cells, pPLCγ1; format: in vivo, mice; conditions: 50 mg/kg for 4 days
Description: as §1, §2

SLFN11 transcript [1] = assay: Microarray analysis of spleen RNA, systemic MOLM13 AML model (study 3); format: in vivo, NSG mice; conditions: study 3, systemic MOLM13, 25 or 50 mg/kg QD, 14 days
Description: (§3) To identify new potential biomarkers of BGB324 efficacy in AML, microarray analyses of tumor material from several AML studies were performed. In the first two studies, NOD/SCID mice were implanted with subcutaneous Mv4-11 xenografts. In study 1 the mice were treated with control (vehicle) or a single dose of BGB324 (50 or 100 mg/kg), and sacrificed after 24 hours. In study 2 the mice were treated BID for 14 days with control (vehicle), low (25 mg/kg) or high (50 mg/kg) dose of BGB324 for 14 days. In a third study, MOLM13 cells were injected intravenously into the tail vein of NSG mice. After three days of inoculation, the animals were treated with control (vehicle), high (50 mg/kg) or low (25 mg/kg) dose of BGB324 QD until the vehicle-treated animals were moribund (14 days after initiation of treatment). Development of leukemia was confirmed by flow cytometric analyses of human CD33/CD45-positive cells in the blood, spleens and bone marrow, and RNA isolated from spleens were sent for microarray analysis.

[2] = system: Slfn11 expression in MOLM-13 cells; assay: Flow cytometry of Slfn11 expression in MOLM-13 cells after treatment; format: cell-based, human
Description: (§4) Live cells were centrifuged at 300 g for 5 minutes, washed once with PBS and centrifuged again. Cells were then fixed in 4% PFA in PBS for 10 minutes at 37° C., and resuspended in PBS. Unless processed immediately, samples were at this point stored in PBS at 4° C. (up to three weeks) or at −80° C. (for long-term storage). If intracellular epitopes were stained, cells were permebealized in 90% MeOH for 30 minutes on ice. Unless processed immediately, samples were also be stored in 90% MeOH at −20° C. for up to two months.
(§5) Cells (150-200 000 per sample) were washed 1× in PBS and incubated in blocking buffer; (PBS+0.5% BSA) for 15 minutes at room temperature. Thereafter, cells were incubated with primary mouse-anti-human SLFN11 Ab at the indicated dilutions in incubation buffer (IB, PBS+0.5% BSA) for 1 hour at room temperature. Cells were then washed 3× with IB and incubated with secondary AB (conjugated to a fluorescent flurophore) at 1:1000 dilution in IB for 30 minutes at room temperature. Finally, cells were washed 3× in IB and resuspended in PBS. For costaining experiments, cells were subsequently incubated with mouse-anti-human Axl Ab (1H12-A647 conjugated Ab) diluted 1:3000 in IB. Cells were analyzed immediately, or stored for up to 24 hours at 4° C. before analysis.
Analysis of cells was done on a BD LSR Fortessa or a BD C6 Accuri flow cytometer, and further processing was done using FlowJo v.7.6.

[3] = system: Slfn11 expression in OCI-AML3 cells; assay: Flow cytometry of Slfn11 expression in OCI-AML3 cells after treatment; format: cell-based, human; conditions: OCI-AML3, treated at IC50-values for 24, 48 and 72 hours
Description: as §4
as §5, with “analysis. […]” for “analysis.”

SLFN11 transcript [4] = assay: Microarray analysis of subcutaneous Mv4-11 xenograft tumors (study 1 and study 2); format: in vivo, NOD/SCID mice; conditions: for downregulation of SLFN11 transcript (Rank Product Analysis): study 2, Mv4-11 xenografts, vs control
Description: as §3
One of the most interesting hits from a Rank Product Analysis of study 2 was a transcript called SLFN11.

pAkt = assay: MOLM13 systemic xenograft model: biomarker flow cytometry in CD33-positive cells, pAkt; format: in vivo, mice; conditions: 50 mg/kg for 4 days
Description: as §1, §2

[5] = system: SLFN11 expression in OCI-AML5 cells; assay: Flow cytometry of total SLFN11 in OCI-AML5 cells after long-term treatment; format: cell-based, human; conditions: OCI-AML5, 2.5 μM
Description: as §4
as §5, with “analysis. […]” for “analysis.”

[6] = system: Slfn11 expression in MOLM-13 cells; assay: Western blot of Slfn11 in MOLM-13 cells, increasing doses; format: cell-based, human; conditions: MOLM-13, 48 hours, increasing doses 0.1 uM to 1.2 uM
Description: (§6) For western blot analysis, cells were lysed on ice using NP-40 lysis buffer with protease- and phosphatase inhibitors. Total protein concentration in lysates was measured using a BCA protein assay kit following the manufacturers instructions. 10% NuPAGE® Bis-Tris precast gels were loaded with 30-50 μg of protein in each well diluted in sample buffer and antioxidant. A 1:1 mix of MagicMark™ XP Western Protein Standard (Invitrogen) and SeeBlue® Plus 2 Pre-Stained Standard was used as protein standard. Gels were run at 50V for 20 min, then at 100V for 1 h30 min. Blotting was done on ice for 1 h 30 min at 100V onto PVDF (pre-activated with MeOH) or nitrocellulose membranes. Membranes were washed in TBS-0.1% Tween-20 (TBS-T), and blocked in TBS-T 5% BSA for at least 1 h at RT. Primary antibody was added at 1:1000 in TBS-T 5% BSA (rabbit-anti-actin Ab was added at 1:2000, rabbit anti-GAPDH Ab was added at 1:3000) in TBS-T 5% BSA, and membranes were incubated over night at 4° C. Membranes were then washed 3× in TBS-T, and incubated in HRP-conjugated secondary antibody at 1:5000 dilution in TBS-T 5% milk for 45 min at RT. Membranes were developed for 1 min using ECL-reagents and imaged with chemiluminescence using a Molecular Imager ChemiDoc™ XRS (BioRad).

[7] = system: SLFN11 expression in Mv4-11 cells; assay: Flow cytometry of total SLFN11 in Mv4-11 cells after long-term treatment; format: cell-based, human
Description: as §4
as §5, with “analysis. […]” for “analysis.”

[8] = system: MOLM13 leukemic cells (CD33/CD45-positive); assay: MOLM13 systemic xenograft model: CD33/CD45-positive leukemic cells by flow cytometry; format: in vivo, mice; conditions: 50 mg/kg for 4 days
Description: as §1
Cells harvested from spleens, blood and bone marrows of the animals were stained with anti CD33 and CD45 antibodies, to determine if systemic disease was established. CD33/CD45-positive cells were identified in spleens (around 10-15%), bone marrows (35-40%) and in the blood (2-6%) of the animals, confirming that the disease was established.

[9] = system: Slfn11 expression in OCI-M1 cells; assay: Flow cytometry of Slfn11 expression in OCI-M1 cells after treatment; format: cell-based, human; conditions: OCI-M1, treated at IC50-values for 24, 48 and 72 hours
Description: as §4
as §5, with “analysis. […]” for “analysis.”

[10] = system: SLFN11 expression in Kasumi cells; assay: Flow cytometry of total SLFN11 in Kasumi cells after long-term treatment; format: cell-based, human; conditions: 2.5 μM
Description: as §4
as §5, with “analysis. […]” for “analysis.”

SLFN11 = assay: MOLM13 systemic xenograft model: biomarker flow cytometry in CD33-positive cells, SLFN11; format: in vivo, mice; conditions: bone marrows, 50 mg/kg for 4 days
Description: as §1, §2

Slfn11 protein = assay: Western blot of MV4-11 subcutaneous tumor xenograft lysates; format: in vivo, mice; conditions: MV4-11 xenografts
Description: as §6
In these studies, mice had been treated with BGB324 25 mg/kg BID and 50 mg/kg BID 2-5 cycle for 14 days, or with a single dose 100 mg/kg (tumors harvested 6 h after treatment).
Since Slfn11 was reduced in only one of two parallel tumor samples after a single treatment, it was decided to examine more lysates from Study 1 by western blot. In this study, mice with subcutaneous MV4-11 tumor xenografts were treated with a single low (50 mg/kg) or high (100 mg/kg) dose of BGB324, and tumors were harvested at different time points, from 4 hours up to 72 hours after treatment. […] Thus, it appears that Slfn11 is reduced in MV4-11 xenografts within 24-72 hours (depending on the drug concentration) after treatment with a single dose of BGB324. The effect of BGB324 on Slfn11 expression in these tumors appears to be long-lasting, as the protein level stays low 72 hours after treatment. However, there appear to be individual differences, and more than two parallel samples of each time point need to be examined in order to better understand the dynamics of Slfn11 reduction in MV4-11 xenografts after BGB324-treatment.

PHGDH = assay: MOLM13 systemic xenograft model: biomarker flow cytometry in CD33-positive cells, PHGDH; format: in vivo, mice; conditions: 50 mg/kg for 4 days
Description: as §1, §2

Nc1nc(Nc2ccc3c(c2)CC[C@@H](N2CCCC2)CC3)nn1-c1cc2c(nn1)-c1ccccc1CCC2 [BGB324]
pErk in CD33-positive cells (pErk; bone marrows): significant reduction | pErk in CD33-positive cells (pErk; spleens): significant reduction | pPLCγ1 in CD33-positive cells (pPLCγ1; bone marrows): significant reduction | pPLCγ1 in CD33-positive cells (pPLCγ1; spleens): significant reduction | SLFN11 transcript regulation in spleens (SLFN11 transcript [1]): not among the transcripts that were significantly downregulated | total protein expression of SLFN11 (flow cytometry, % of control) ([2]; MOLM13, 0.3 μM, 24, 48 and 72 hours): significant reduction | SLFN11 expression (flow cytometry) ([2]; MOLM-13, 48 hours, increasing doses 0.1 uM to 1.2 uM): dose-dependent downregulation; also recorded: confirmed | SLFN11 expression (flow cytometry) ([2]; MOLM-13, treated at IC50-values for 24, 48 and 72 hours): marked reduction | SLFN11 expression (flow cytometry) [3]: marked reduction | reduction of SLFN11 transcript (Rank Product Analysis) (SLFN11 transcript [4]; study 1, Mv4-11 xenografts, single dose (50 or 100 mg/kg), sacrificed after 24 hours): 1.449 fold | SLFN11 transcript regulation after 14d treatment (in words) (SLFN11 transcript [4]; study 2, 25 and 50 mg/kg): highly significant dose-dependent downregulation | SLFN11 transcript, SAM (significance of microarray) analysis (SLFN11 transcript [4]; study 2, 14 d treatment, q=0.0): reduction of SLFN11 as the most significant (#1) hit | downregulation of SLFN11 transcript (Rank Product Analysis) (SLFN11 transcript [4]; 25 mg/kg BID for 14 days): 1.98 fold | downregulation of SLFN11 transcript (Rank Product Analysis) (SLFN11 transcript [4]; 50 mg/kg BID for 14 days): 3.98 fold | pAkt change in CD33-positive cells (pAkt; bone marrows): not significant | pAkt change in CD33-positive cells (pAkt; spleens): not significant | total protein expression of SLFN11 (flow cytometry, % of control) ([5]; 24 and 48 hours): no significant differences | total protein expression of SLFN11 (flow cytometry, % of control) ([5]; 72 hours): significant increase | Slfn11 expression (western blot) [6]: dose-dependent downregulation; also recorded: dose-dependent reduction | Slfn11 expression (western blot) ([6]; listed as BGB324/R428): reduced in a dose-dependent manner | total protein expression of SLFN11 (flow cytometry, % of control) ([7]; Mv4-11, 0.1 uM, 72 hours): significantly reduced | total protein expression of SLFN11 (flow cytometry, % of control) ([7]; Mv4-11, 0.3 μM, 24, 48 and 72 hours): significant reduction | percentage of leukemic cells (CD33/CD45-positive) vs. vehicle-treated ([8]; blood): significantly higher percentage | percentage of leukemic cells (CD33/CD45-positive) vs. vehicle-treated ([8]; bone marrows): no significant differences | percentage of leukemic cells (CD33/CD45-positive) vs. vehicle-treated ([8]; spleens): no significant differences | SLFN11 expression (flow cytometry) [9]: marked reduction | total protein expression of SLFN11 (flow cytometry, % of control) ([10]; 24 and 48 hours): no significant differences | total protein expression of SLFN11 (flow cytometry, % of control) ([10]; 72 hours): significant increase | SLFN11 expression in CD33-positive cells (SLFN11): significant reduction | Slfn11 protein compared to control levels (western blot) (Slfn11 protein; 25 mg/kg BID and 50 mg/kg BID, 14 days): marked reduction | Slfn11 protein (western blot) (Slfn11 protein; single dose 100 mg/kg, tumors harvested 6 h after treatment): reduced in one of the two parallel samples | duration of effect on Slfn11 protein level (Slfn11 protein; single dose, 72 hours after treatment): stays low | time after single dose within which Slfn11 is reduced (Slfn11 protein; single dose, depending on the drug concentration): 24 to 72 h | Slfn11 protein (western blot) (Slfn11 protein; single high dose 100 mg/kg, 24, 48 and 72 hours after treatment): reduction | Slfn11 protein (western blot) (Slfn11 protein; single high dose 100 mg/kg, time points earlier than 24 hours (from 4 hours)): not at earlier time points | Slfn11 protein (western blot) (Slfn11 protein; single low dose 50 mg/kg, 72 hours after treatment): slight reduction | PHGDH expression in CD33-positive cells (PHGDH; bone marrows): significant reduction | PHGDH expression in CD33-positive cells (PHGDH; spleens): significant reduction
